Assay results reported in publication PMC10335629 (Journal of the American Chemical Society, 2023).
Where two headings read alike, the source gives them in different places. No end group written: not given here.

Legend:
GLP-2R = biological target: T1, GLP-2R (Homo sapiens, UniProt O95838); assay: GLP-2R activation: cAMP production, GloSensor HEK293 cells
T1 sequence (O95838 1-553): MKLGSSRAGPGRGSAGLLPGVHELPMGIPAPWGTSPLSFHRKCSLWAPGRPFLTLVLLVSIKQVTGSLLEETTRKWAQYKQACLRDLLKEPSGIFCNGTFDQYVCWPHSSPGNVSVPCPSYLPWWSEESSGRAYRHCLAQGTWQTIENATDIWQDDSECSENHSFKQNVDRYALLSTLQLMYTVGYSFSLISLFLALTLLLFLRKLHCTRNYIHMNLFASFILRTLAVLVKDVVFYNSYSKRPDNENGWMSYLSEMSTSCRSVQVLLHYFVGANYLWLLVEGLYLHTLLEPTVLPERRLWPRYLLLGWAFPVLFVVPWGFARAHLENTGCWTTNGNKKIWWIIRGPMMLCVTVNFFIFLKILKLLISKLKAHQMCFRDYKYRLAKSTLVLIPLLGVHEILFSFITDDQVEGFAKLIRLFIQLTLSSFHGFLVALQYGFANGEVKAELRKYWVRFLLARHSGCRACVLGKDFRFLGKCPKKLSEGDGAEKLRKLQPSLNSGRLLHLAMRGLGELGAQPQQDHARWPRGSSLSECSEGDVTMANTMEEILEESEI

GLP-1R = GLP-1R (Homo sapiens, UniProt P43220); assay: GLP-1R activation: cAMP production, GloSensor HEK293 cells; format: cell-based
nLuc-GLP-2R [1] = biological target: T2, nLuc-GLP-2R (Homo sapiens, UniProt O95838); assay: nLuc-GLP-2R competition binding
T2 sequence (O95838 1-553): T1 sequence (O95838 1-553)

nLuc-GLP-1R = nLuc-GLP-1R (Homo sapiens, UniProt P43220); assay: nLuc-GLP-1R competition binding
nLuc-GLP-2R [2] = biological target: nLuc-GLP-2R (UniProt O95838)
nLuc-GLP-2R [3] = biological target: nLuc-GLP-2R (UniProt O95838); assay: FRET or BRET
nLuc-GLP-2R [4] = biological target: nLuc-GLP-2R (UniProt O95838); remark: listed apart in the source

Sequence of GLP-1R (P43220 24-463): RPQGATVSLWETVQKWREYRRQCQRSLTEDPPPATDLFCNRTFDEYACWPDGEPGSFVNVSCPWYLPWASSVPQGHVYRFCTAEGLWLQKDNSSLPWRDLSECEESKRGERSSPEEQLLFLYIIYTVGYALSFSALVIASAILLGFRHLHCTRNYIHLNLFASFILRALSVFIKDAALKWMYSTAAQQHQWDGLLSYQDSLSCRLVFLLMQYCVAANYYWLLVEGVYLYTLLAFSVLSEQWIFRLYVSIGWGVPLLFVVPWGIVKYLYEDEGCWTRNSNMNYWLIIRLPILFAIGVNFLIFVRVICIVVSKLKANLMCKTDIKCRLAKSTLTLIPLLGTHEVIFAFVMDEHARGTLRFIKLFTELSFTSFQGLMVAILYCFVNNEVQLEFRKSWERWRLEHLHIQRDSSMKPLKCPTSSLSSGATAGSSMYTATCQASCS
Sequence of nLuc-GLP-1R (P43220 24-463): as above

In the case of “HGEGTFSSELATILDALAARDFIAWLIATKITDKKKKKK-NH2 (C-terminus assumed) [GLE, glepaglutide]”, the Emax (GLP-2R; HEK293, read-out: GLP-2R cAMP Production % Max) is reported as 98 ± 1%, the “GLP-1R cAMP Production % Max” value (GLP-1R; maximal response normalized relative to GLE, ≥4 independent experiments, ± S.E.M., NR = No Response) is reported as 95 ± 2% and the “lower affinity for nLuc-GLP-2R relative to GLP-2” value (nLuc-GLP-2R [1]; competition BRET, Figure S2) is reported as ~ 10 fold.
Work on “HGEGTFSSELATILDALAARDFIAWLIATKITDKKKKKK-NH2 [GLE, glepaglutide]” yielded an IC50 (nLuc-GLP-1R) of 290 nM, an EC50 (GLP-2R) of 0.44 nM and an EC50 (GLP-1R) of 5.1 nM. It also gave an IC50 (nLuc-GLP-2R [1]) of 170 nM.
“GLP-2-NH2: C-terminal amide analogue of the hormone GLP-2” was tested, and the “effect of altering the C-terminus to a primary amide on GLP-2R activation” value (GLP-2R; natural sequence, compared with GLP-2, Figure S1) was “no effect on GLP-2R activation”.
Work on glepaglutide (GLE) (peptide) yielded a GLP-2R cAMP Production, EC50 (native GLP-2R) (nLuc-GLP-2R [2]) of 0.44 nM.
GLP-2 (peptide) gave an IC50 (nLuc-GLP-2R [3]) of 25 nM, a GLP-2R cAMP Production, % Max (normalized to GLP-2) (nLuc-GLP-2R [4]) of 99% and a GLP-2R cAMP Production, EC50 (native GLP-2R) (nLuc-GLP-2R [4]) of 0.086 nM.
